Literature values, collected in patent US20250255825A1, “POLYMER-LIPID NANOCOMPLEX FOR ENHANCED AQUEOUS SOLUBILISATION AND ABSORPTION OF HYDROPHOBIC ACTIVE COMPOUNDS” (priority 2019, published 2025).
Where two headings read alike, the source gives them in different places.

Tests used:
[1] = partition coefficient octanol/water
[2] = test system: plasma proteins
[3] = test system: malaria parasitaemia in the blood; settings: reported value for un-formulated LUM
[4] = not given; remark: listed apart in the source

Log P [1]	protein bound [2] [%]	half-life (T½) (in vivo) [h]	highest concentration (Cmax) in the blood (orally administered) [ng/mL]	time to reach the highest concentration (Tmax) (orally administered)	SMILES	effective dose (ED90) to clear 90% of parasitaemia in the blood [3] [mg/kg]	bioavailability ([4]; inhalation)	bioavailability ([4]; orally)
9	99.7	96 to 120	7000	about 6 hours	CCCCN(CCCC)CC(O)c1cc(Cl)cc2c1-c1ccc(Cl)cc1/C2=C/c1ccc(Cl)cc1 (racemic) [Lumefantrine]	12.01		
					C=C(C)[C@@H]1CCC(C)=C[C@H]1c1c(O)cc(CCCCC)cc1O [Cannabidiol]		11-45%	13-19%
